Columns and labels:
HeLa = test: MTT cell viability, HeLa cervix cancer; type: cell-based; conditions: 48 h, vs control
Experimental: (§1) Each malignant tumor cell line was cultured in Dulbecco's modified Eagle's medium (DMEM, GIBCO, Carlsbad, Calif.) supplemented with 10% fetal bovine serum (FBS, GIBCO). Cells were incubated in a humidified 5% CO2 atmosphere at 37° C. After reaching confluence, cells were detached by trypsin-EDTA solution (GIBCO), diluted 1:4-1:6, plated for subculture and were passaged routinely at a dilution of 1:4-1:6 every 4-6 days.
(§2) All cell lines were tested in triplicates.

A375 = test: MTT cell viability, A375 cutaneous melanoma; type: cell-based; conditions: 48 h, vs control
Experimental: as §1, §2

HCT-15 = test: MTT cell viability, HCT-15 colon cancer; type: cell-based; conditions: 48 h, vs control
Experimental: as §1, §2

LoVo = test: MTT cell viability, LoVo colon cancer; type: cell-based; conditions: 48 h, vs control
Experimental: as §1, §2

C918 = test: MTT cell viability, C918 uveal melanoma; type: cell-based; conditions: vs control; for Cell viability: 48 h, MTT; for reduction of cell viabilities: FIG. 1C
Experimental: as §1, §2

OCM2 = test: MTT cell viability, OCM2 uveal melanoma; type: cell-based; conditions: 48 h, vs control
Experimental: as §1, §2

T-47D = test: MTT cell viability, T-47D breast cancer; type: cell-based; conditions: 48 h, vs control
Experimental: as §1, §2

SCC1 = test: MTT cell viability, SCC1 cutaneous squamous carcinoma; type: cell-based; conditions: 48 h, vs control
Experimental: as §1, §2

Hep G2 = test: MTT cell viability, Hep G2 hepatocellular carcinoma; type: cell-based; conditions: 48 h, vs control
Experimental: as §1, §2

PC-3 = test: MTT cell viability, PC-3 prostate cancer; type: cell-based; conditions: 48 h, vs control
Experimental: as §1, §2

DU-145 = test: MTT cell viability, DU-145 prostate cancer; type: cell-based; conditions: 48 h, vs control
Experimental: as §1, §2

NCI-H820 = test: MTT cell viability, NCI-H820 lung cancer; type: cell-based; conditions: 48 h, vs control
Experimental: as §1, §2

OS143 = test: MTT cell viability, OS143 osteosarcoma; type: cell-based; conditions: 48 h, vs control
Experimental: as §1, §2

A549 = test: MTT cell viability, A549 lung cancer; type: cell-based; conditions: for Cell viability: 48 h, MTT, vs control
Experimental: as §1, §2

NCI-H1755 = test: MTT cell viability, NCI-H1755 lung cancer; type: cell-based; conditions: for Cell viability: 48 h, MTT, vs control
Experimental: as §1, §2

MDA = test: MTT cell viability, MDA breast cancer; type: cell-based; conditions: for Cell viability: 48 h, MTT, vs control
Experimental: as §1, §2

PANC-1 = test: MTT cell viability, PANC-1 pancreatic cancer; type: cell-based; conditions: for Cell viability: 48 h, MTT, vs control
Experimental: as §1, §2

SP6.5 = test: Phase-contrast microscopy of treated uveal melanoma cells; type: cell-based; conditions: SP6.5, 0, 30 and 100 μM zeaxanthin, 48 hr, 24-well plates
Experimental: FIGS. 2A, 2B and 2C illustrate the phase-contrast photomicrographs of uveal melanoma cells which have been treated with three different concentrations of zeaxanthin. Uveal melanoma cells (SP6.5 cell line) were seeded into 24-well plates and treated with zeaxanthin at 0 μM (2A), 30 μM (2B), and 100 μM (2C) levels for 48 hr.
Viability of cells treated with zeaxanthin was also visualized in the following tests. In these tests, the same amount of uveal melanoma cells were cultured and treated with zeaxanthin at different concentrations, and the treated cells were examined under microscope. Specifically, the uveal melanoma cell line SP6.5 was seeded into 24-well plates and treated with zeaxanthin at final concentrations of 0 μM, 30 μM, and 100 μM for 48 hr. […] The number of cells alive in FIG. 2A is more than that in FIG. 2B, which in turn is more than that in FIG. 2C.

malignant hepatic tumor = test: Treatment of a patient with recurred malignant hepatic tumor; type: in vivo, human; conditions: one patient
Experimental: In this example, zeaxanthin was used to treat a patient with malignant hepatic tumor. […] The tumor recurred in a few months in the patient after resection. The patient was then treated with zeaxanthin in view of the extensive and safe use of zeaxanthin as a supplement of the treatment of macular disorders.
In treating the recurred malignant hepatic tumor in the patient, we prescribed a dose of 80 mg/day of zeaxanthin which was used to supplement their conventional treatment of Avastin® infusion. […] The patient's condition continued to improve under the combination therapy of zeaxanthin and Avastin® infusion in the next 9 months. The patient was able to resume their social life during the period of 9 months and then passed away after 2 months. The patient's life was prolonged more than 1 year following their projected mortality under the conventional Avastin® infusion treatment on the recurring malignant hepatic tumor.
Therefore, a dosage of about 1.2 mg/kg/d of zeaxanthin was sufficient to help reducing tumor cell viability in the patient under the combination therapy.

CC1=C(/C=C/C(C)=C/C=C/C(C)=C/C=C/C=C(C)/C=C/C=C(C)/C=C/C2=C(C)C[C@@H](O)CC2(C)C)C(C)(C)C[C@H](O)C1 [zeaxanthin] showed a Cell viability (HeLa; 10 μM zeaxanthin) of 66 ± 3.3%, a Cell viability (HeLa; 30 μM zeaxanthin) of 46 ± 1.6% and a Cell viability (HeLa; 100 μM zeaxanthin) of 7.9 ± 2.0%. The Cell viability (A375; A375, 10 μM zeaxanthin) was 62 ± 2.7%, the Cell viability (A375; A375, 30 μM zeaxanthin) was 41 ± 2.7% and the Cell viability (A375; A375, 100 μM zeaxanthin) was 6%. For the same compound, the Cell viability (HCT-15; HCT-15, 10 μM zeaxanthin) was 62 ± 3.4%, the Cell viability (HCT-15; HCT-15, 30 μM zeaxanthin) was 46 ± 2.4% and the Cell viability (HCT-15; HCT-15, 100 μM zeaxanthin) was 12 ± 1.3%. The Cell viability (LoVo; 10 μM zeaxanthin) was 76 ± 3.8%, the Cell viability (LoVo; 30 μM zeaxanthin) was 51 ± 2.5% and the Cell viability (LoVo; 100 μM zeaxanthin) was 32 ± 1.6%. The Cell viability (C918; C918, 10 μM zeaxanthin) was 79 ± 4.1%, the “reduction of cell viabilities” value (C918; C918, 10 μM zeaxanthin) was “about 21%” and the Cell viability (C918; C918, 30 μM zeaxanthin) was 48 ± 2.6%. The “reduction of cell viabilities” value (C918; C918, 30 μM zeaxanthin) was ~52%, the Cell viability (C918; C918, 100 μM zeaxanthin) was 12 ± 1.0% and the “reduction of cell viabilities” value (C918; C918, 100 μM zeaxanthin) was ~88%. It also gave a Cell viability (OCM2; OCM2, 10 μM zeaxanthin) of 90 ± 4.9%, a Cell viability (OCM2; OCM2, 30 μM zeaxanthin) of 70 ± 2.1% and a Cell viability (OCM2; OCM2, 100 μM zeaxanthin) of 46 ± 2.0%. The Cell viability (T-47D; 10 μM zeaxanthin) was 83 ± 4.2%, the Cell viability (T-47D; 30 μM zeaxanthin) was 57 ± 3.5% and the Cell viability (T-47D; 100 μM zeaxanthin) was 31 ± 1.4%. It also gave a Cell viability (SCC1; SCC1, 10 μM zeaxanthin) of 80 ± 3.5%, a Cell viability (SCC1; SCC1, 30 μM zeaxanthin) of 65 ± 2.9% and a Cell viability (SCC1; SCC1, 100 μM zeaxanthin) of 13 ± 1.4%. The Cell viability (Hep G2; Hep G2, 10 μM zeaxanthin) was 79 ± 3.7%, the Cell viability (Hep G2; Hep G2, 30 μM zeaxanthin) was 58 ± 1.8% and the Cell viability (Hep G2; Hep G2, 100 μM zeaxanthin) was 32 ± 1.2%. It also gave a Cell viability (PC-3; PC-3, 10 μM zeaxanthin) of 74 ± 4.4%, a Cell viability (PC-3; PC-3, 30 μM zeaxanthin) of 62 ± 3.2% and a Cell viability (PC-3; PC-3, 100 μM zeaxanthin) of 39 ± 2.6%. For the same compound, the Cell viability (DU-145; DU-145, 10 μM zeaxanthin) was 78 ± 5.0%, the Cell viability (DU-145; DU-145, 30 μM zeaxanthin) was 65 ± 5.5% and the Cell viability (NCI-H820; NCI-H820, 10 μM zeaxanthin) was 76 ± 4.5%. It also gave a Cell viability (NCI-H820; NCI-H820, 30 μM zeaxanthin) of 68 ± 3.1%, a Cell viability (NCI-H820; NCI-H820, 100 μM zeaxanthin) of 38 ± 1.7% and a Cell viability (OS143; OS143, 10 μM zeaxanthin) of 82 ± 5.0%. It also gave a Cell viability (OS143; OS143, 30 μM zeaxanthin) of 78 ± 3.4%, a Cell viability (OS143; OS143, 100 μM zeaxanthin) of 42 ± 1.3% and a Cell viability (A549; A549, 10 μM zeaxanthin) of 94 ± 6.6%. The Cell viability (A549; A549, 30 μM zeaxanthin) was 86 ± 4.4%, the Cell viability (A549; A549, 100 μM zeaxanthin) was 67 ± 6.1% and the “final concentration at which cell viability decreased significantly” value (A549; A549, vs cells without zeaxanthin) was ≥ 100 µM. It also gave a Cell viability (NCI-H1755; NCI-H1755, 10 μM zeaxanthin) of 86 ± 6.7%, a Cell viability (NCI-H1755; NCI-H1755, 30 μM zeaxanthin) of 81 ± 4.5% and a Cell viability (NCI-H1755; NCI-H1755, 100 μM zeaxanthin) of 81 ± 90%. The “final concentration at which cell viability decreased significantly” value (NCI-H1755; NCI-H1755, vs cells without zeaxanthin) was ≥ 30 µM, the Cell viability (MDA; 10 μM zeaxanthin) was 97 ± 6.36% and the Cell viability (MDA; 30 μM zeaxanthin) was 95 ± 5.1%. For the same compound, the Cell viability (MDA; 100 μM zeaxanthin) was 92 ± 9.2%, the “decrease of cell viability after zeaxanthin treatment” value (MDA; final concentration as high as 100 μM) was “did not see statistically significant decrease of cell viability” and the “final concentration at which cell viability decreased significantly” value (PANC-1; PANC, vs cells without zeaxanthin) was ≥ 100 µM. It also gave a Cell viability (PANC-1; PANC-1, 10 μM zeaxanthin) of 101 ± 6.0%, a Cell viability (PANC-1; PANC-1, 30 μM zeaxanthin) of 98 ± 5.5% and a Cell viability (PANC-1; PANC-1, 100 μM zeaxanthin) of 76 ± 5.1%. For the same compound, the “number of cells seen under microscope” value (SP6.5) was “the number of cells in the culture that could be seen under microscope decreased progressively”, the “MRI scans of multiple recurrent hepatic tumors” value (malignant hepatic tumor; 80 mg/day zeaxanthin supplementing Avastin infusion, after several months) was “began to shrink significantly to the point of where the tumors could not be detected” and the “prolongation of life beyond projected mortality under conventional Avastin infusion” value (malignant hepatic tumor; 80 mg/day zeaxanthin with Avastin infusion) was “more than 1 year”.

Reference: US20170014354A1, “ZEAXANTHIN FOR TUMOR TREATMENT” (The New York Eye and Ear Infirmary, priority 2012, published 2017)
